# Assay results reported in patent US20110028566A1, “COMPOSITIONS AND PRODUCTS CONTAINING CYCLOALIPHATIC DIOL ANTIMICROBIAL AGENTS AND METHODS OF USING THE COMPOSITIONS AND PRODUCTS” (EASTMAN CHEMICAL COMPANY, priority 2009, published 2011).
# Key:
# Assay in all cases: Microbial challenge testing in BPW
# Format in all cases: cell-based
# [1] = system: Pseudomonas aeruginosa; conditions: for Grade code, P. aeruginosa, 3 Days / Grade code, P. aeruginosa, 13 Days / Grade code, P. aeruginosa, 30 Days: BPW, w/v % in label, average of replicates
# Procedure: (§1) The microorganisms used in challenge tests are given in Table 3, designated as either ATCC (American Type Culture Collection) or wild type. These wild type organisms were problematic organisms previously isolated from chemical products. In the description for each organism, the bacteria are indicated as either GN (Gram negative) or GP (Gram positive).
# (§2) All of the microorganisms were grown in Tryptose Soy Broth (TSB), DIFCO™ available from Becton, Dickinson and Company, containing 1% dextrose. Aspergillus niger and Candida albicans were incubated at 22° C.±2° C. for at least 96 hours. All bacteria were incubated at 35° C.±2° C. in a humidified incubator for at least 96 hours.
# (§3) The following procedure was followed to determine the amount of each challenge material (inoculum broth) required to produce a 10^8 cfu/mL challenge, which is equivalent to a final test-sample microbial concentration of 10^5 to 10^6 cfu (colony-forming units)/mL.
# (§4) Using a sterile serological pipette, 1 mL of the growth from each TSB culture was transferred into tubes containing 9 mL phosphate buffer (pH 7.2) and mixed thoroughly. This process was repeated to make serial 1:10 dilutions. Then 0.1 mL of each sample and dilution was inoculated onto agar plates to produce the equivalent of a further 1:10 dilution. C. albicans and A. niger were inoculated onto SDA and bacteria were inoculated onto Plate Count Agar (PCA), DIFCO™ available from Becton, Dickinson and Company. The 0.1 mL aliquots were evenly distributed on the plates using the spread-plate technique. The spread-plate technique is performed by spreading the aliquot over the entire plate surface using a sterile spreading rod while rotating the plate with a rotary auto-plater. After the inoculum was absorbed completely, each plate was inverted and incubated (fungi at 22° C.±2° C. and bacteria at 35° C.±2° C.).
# (§5) After incubation for at least 48 hours, colonies that had developed on the agar plates were counted and recorded with the corresponding dilution. If counting had to be delayed temporarily, plates were refrigerated, preferably no more than 24 hours, until they could be counted. The number of cfu/mL was determined by multiplying the count by the dilution factor for that particular plate.
# (§6) Turbidity in Nepholemetric Turbidity Units (NTU) was measured for each serial dilution using the HF-Micro 100 Model Turbidimeter. For each microorganism, the plate counts were compared to the turbidity readings.
# (§7) Control substrates (“broth alone”) were prepared for each microorganism separately in triplicate by adding 13.5 mL of BPW (pH 7.0) containing 1% (w/v) dextrose to each 20-mL glass tube; then adding 1.5 mL challenge material to produce a final concentration at time zero of 10^5 to 10^6 cfu/mL and a total volume of 15 mL.
# (§8) Test sample substrates were prepared containing each test material (1,4-CHDM, etc) or combination of test materials at the concentrations shown in Tables 5 and 6. Sample substrates were prepared in triplicate, except those substrates containing PE or CG which were prepared in duplicate. Substrates were prepared by adding BPW containing 1% (w/v) dextrose to each 20-mL glass tube, then adding the test material in the amount appropriate to achieve the desired weight/volume percent (g/100 mL) and to obtain a total volume of BPW with dextrose and test material of 13.5 mL. Then 1.5 mL challenge material was added to produce a final concentration at time zero of 10^5 to 10^6 cfu/mL of the respective organism and a total test sample substrate volume of 15 mL.
# (§9) After mixing, all challenged substrates were incubated at 35° C.±2° C. for 14 days and then at ambient room temperature.
# [2] = system: Burkholderia cepacia; conditions: for Grade code, B. cepacia, 3 Days / Grade code, B. cepacia, 14 Days / Grade code, B. cepacia, 30 Days: BPW, w/v % in label, average of replicates
# Procedure: as §1, §2, §3, §4, §5, §6, §7, §8, §9
# [3] = system: Staphylococcus aureus
# Procedure: as §1, §2, §3, §4, §5, §6, §7, §8, §9
# [4] = 3 days incubation, listed as 0.5% AB
# [5] = 3 days incubation, listed as 1.25% AB
# [6] = 3 days incubation, listed as 2.5% AB
# [7] = 30 days incubation, listed as 0.5% AB
# [8] = 30 days incubation, listed as 1.25% AB
# [9] = 30 days incubation, listed as 2.5% AB
smiles,measurement,setting,value
"OCC1CCC(CO)CC1 (stereo not shown) [1,4-CHDM, 1,4-cyclohexanedimethanol]",Grade code P. aeruginosa,"[1]; 0.5%, 3 days incubation","4 (1001 to 10,000 colonies (thus 10,000 cfu/mL to 100,000 cfu/mL))"
same,Grade code P. aeruginosa,"[1]; 0.5%, 13 days incubation","4 (1001 to 10,000 colonies (thus 10,000 cfu/mL to 100,000 cfu/mL))"
same,Grade code P. aeruginosa,"[1]; 0.5%, 30 days incubation","4 (1001 to 10,000 colonies (thus 10,000 cfu/mL to 100,000 cfu/mL))"
same,Grade code P. aeruginosa,"[1]; 1.25%, 3 days incubation","4 (1001 to 10,000 colonies (thus 10,000 cfu/mL to 100,000 cfu/mL))"
same,Grade code P. aeruginosa,"[1]; 1.25%, 13 days incubation","3 (101 to 1000 colonies (thus 1000 to 10,000 cfu/mL))"
same,Grade code P. aeruginosa,"[1]; 1.25%, 30 days incubation","4 (1001 to 10,000 colonies (thus 10,000 cfu/mL to 100,000 cfu/mL))"
same,Grade code P. aeruginosa,"[1]; 2.5%, 3 days incubation","3 (101 to 1000 colonies (thus 1000 to 10,000 cfu/mL))"
same,Grade code P. aeruginosa,"[1]; 2.5%, 13 days incubation",2 (52 to 100 colonies counted (thus 520 to 1000 cfu/mL))
same,Grade code P. aeruginosa,"[1]; 2.5%, 30 days incubation",0 (No growth detected or <1 colony (thus <10 cfu/mL))
same,"Grade code, P. aeruginosa, 3 Days",[1]; [4],"4 (1001 to 10,000 colonies (thus 10,000 cfu/mL to 100,000 cfu/mL))"
same,"Grade code, P. aeruginosa, 3 Days",[1]; [5],"4 (1001 to 10,000 colonies (thus 10,000 cfu/mL to 100,000 cfu/mL))"
same,"Grade code, P. aeruginosa, 3 Days",[1]; [6],"3 (101 to 1000 colonies (thus 1000 to 10,000 cfu/mL))"
same,"Grade code, P. aeruginosa, 13 Days","[1]; 13 days incubation, listed as 0.5% AB","4 (1001 to 10,000 colonies (thus 10,000 cfu/mL to 100,000 cfu/mL))"
same,"Grade code, P. aeruginosa, 13 Days","[1]; 13 days incubation, listed as 1.25% AB","3 (101 to 1000 colonies (thus 1000 to 10,000 cfu/mL))"
same,"Grade code, P. aeruginosa, 13 Days","[1]; 13 days incubation, listed as 2.5% AB",2 (52 to 100 colonies counted (thus 520 to 1000 cfu/mL))
same,"Grade code, P. aeruginosa, 30 Days",[1]; [7],"4 (1001 to 10,000 colonies (thus 10,000 cfu/mL to 100,000 cfu/mL))"
same,"Grade code, P. aeruginosa, 30 Days",[1]; [8],"4 (1001 to 10,000 colonies (thus 10,000 cfu/mL to 100,000 cfu/mL))"
same,"Grade code, P. aeruginosa, 30 Days",[1]; [9],0 (No growth detected or <1 colony (thus <10 cfu/mL))
same,Grade code B. cepacia,"[2]; 0.5%, 3 days incubation","4 (1001 to 10,000 colonies (thus 10,000 cfu/mL to 100,000 cfu/mL))"
same,Grade code B. cepacia,"[2]; 0.5%, 14 days incubation","4 (1001 to 10,000 colonies (thus 10,000 cfu/mL to 100,000 cfu/mL))"
same,Grade code B. cepacia,"[2]; 0.5%, 30 days incubation","4 (1001 to 10,000 colonies (thus 10,000 cfu/mL to 100,000 cfu/mL))"
same,Grade code B. cepacia,"[2]; 1.25%, 3 days incubation","4 (1001 to 10,000 colonies (thus 10,000 cfu/mL to 100,000 cfu/mL))"
same,Grade code B. cepacia,"[2]; 1.25%, 14 days incubation",2 (52 to 100 colonies counted (thus 520 to 1000 cfu/mL))
same,Grade code B. cepacia,"[2]; 1.25%, 30 days incubation","4 (1001 to 10,000 colonies (thus 10,000 cfu/mL to 100,000 cfu/mL))"
same,Grade code B. cepacia,"[2]; 2.5%, 3 days incubation",0 (No growth detected or <1 colony (thus <10 cfu/mL))
same,Grade code B. cepacia,"[2]; 2.5%, 14 days incubation",0 (No growth detected or <1 colony (thus <10 cfu/mL))
same,Grade code B. cepacia,"[2]; 2.5%, 30 days incubation",0 (No growth detected or <1 colony (thus <10 cfu/mL))
same,"Grade code, B. cepacia, 3 Days",[2]; [4],"4 (1001 to 10,000 colonies (thus 10,000 cfu/mL to 100,000 cfu/mL))"
same,"Grade code, B. cepacia, 3 Days",[2]; [5],"4 (1001 to 10,000 colonies (thus 10,000 cfu/mL to 100,000 cfu/mL))"
same,"Grade code, B. cepacia, 3 Days",[2]; [6],0 (No growth detected or <1 colony (thus <10 cfu/mL))
same,"Grade code, B. cepacia, 14 Days","[2]; 14 days incubation, listed as 0.5% AB","4 (1001 to 10,000 colonies (thus 10,000 cfu/mL to 100,000 cfu/mL))"
same,"Grade code, B. cepacia, 14 Days","[2]; 14 days incubation, listed as 1.25% AB",2 (52 to 100 colonies counted (thus 520 to 1000 cfu/mL))
same,"Grade code, B. cepacia, 14 Days","[2]; 14 days incubation, listed as 2.5% AB",0 (No growth detected or <1 colony (thus <10 cfu/mL))
same,"Grade code, B. cepacia, 30 Days",[2]; [7],"4 (1001 to 10,000 colonies (thus 10,000 cfu/mL to 100,000 cfu/mL))"
same,"Grade code, B. cepacia, 30 Days",[2]; [8],"4 (1001 to 10,000 colonies (thus 10,000 cfu/mL to 100,000 cfu/mL))"
same,"Grade code, B. cepacia, 30 Days",[2]; [9],0 (No growth detected or <1 colony (thus <10 cfu/mL))
same,Grade code S. aureus,"[3]; 0.5%, 3 days incubation","4 (1001 to 10,000 colonies (thus 10,000 cfu/mL to 100,000 cfu/mL))"
same,Grade code S. aureus,"[3]; 0.5%, 14 days incubation","4 (1001 to 10,000 colonies (thus 10,000 cfu/mL to 100,000 cfu/mL))"
same,Grade code S. aureus,"[3]; 0.5%, 30 days incubation","4 (1001 to 10,000 colonies (thus 10,000 cfu/mL to 100,000 cfu/mL))"
same,Grade code S. aureus,"[3]; 1.25%, 3 days incubation","3 (101 to 1000 colonies (thus 1000 to 10,000 cfu/mL))"
